The source of these data is patent publication US10793568B2, “Hormone receptor modulators for treating metabolic conditions and disorders” (ARDELYX, INC., priority 2016, dated 2020).

Experiment [1] addresses human Farnesoid X receptor ligand-binding domain/Gal4 DNA binding domain chimera (Homo sapiens (Human), UniProt Q96RI1). Briefly: Cell-based assay of FXR activation (FXR-UAS-bla HEK 293T beta-lactamase reporter). Conditions: cellular FXR beta-lactamase reporter assay; for Emax: HEK-293T, extent of activation relative to GW4064, read-out: % Efficacy; for EC50: FXR-UAS-bla HEK 293T cells, 16 h, pEC50 = -log EC50. Put shortly:
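Readout is cleavage of the CCF4 FRET substrate (409 nm excitation, blue 447 nm signal) by beta-lactamase, expressed under UAS control after a Gal4–human FXR LBD chimera is activated in HEK 293T cells. Compounds were added as 3-fold dilutions for 16 h at 37 °C in 2% charcoal-stripped FBS medium. Curves were fit to a 3-parameter logistic equation to give pEC50, with % activation relative to GW4064.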
(Reporter assays use an easily measured gene product as a stand-in for the process of interest.)

For experiment [2], the target named is ligand binding domain of human FXR (Homo sapiens (Human), UniProt Q96RI1). The experiment in a line: FXR ligand binding assay (LanthaScreen TR-FRET, SRC2-2 peptide recruitment). The conditions noted are these: for pEC50: -log EC50, concentration required to produce 50% activation; for Emax: extent of activation relative to GW4064, read-out: % Efficacy.
ligand binding domain of human FXR, sequence (Q96RI1 262-486): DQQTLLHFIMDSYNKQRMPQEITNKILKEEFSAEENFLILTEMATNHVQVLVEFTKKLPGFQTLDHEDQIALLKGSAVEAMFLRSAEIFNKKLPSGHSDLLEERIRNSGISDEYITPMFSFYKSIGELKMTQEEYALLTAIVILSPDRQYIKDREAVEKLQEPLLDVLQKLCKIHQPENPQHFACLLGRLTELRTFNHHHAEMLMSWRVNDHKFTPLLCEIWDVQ

human Farnesoid X receptor ligand-binding domain/Gal4 DNA binding domain chimera, sequence (Q96RI1 262-486, change not shown): as the sequence (Q96RI1 262-486) above
human Farnesoid X receptor ligand-binding domain/Gal4 DNA binding domain chimera, sequence (P04386 1-147 partner): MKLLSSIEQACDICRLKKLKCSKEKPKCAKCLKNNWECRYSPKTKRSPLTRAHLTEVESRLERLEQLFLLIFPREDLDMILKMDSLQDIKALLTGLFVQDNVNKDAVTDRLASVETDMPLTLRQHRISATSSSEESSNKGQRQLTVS

Broadly, the EC50 is the concentration at which the effect is half-maximal. High values mean a need for much substance, low ones an effect from little substance. In general, pEC50 refers to the negative decadic logarithm of the EC50, by convention in mol/L. Read a high pEC50 as a low EC50. Turning to `O=C(O)c1cc(OCC(F)(F)F)c2nc(N3C[C@@H]4C[C@H]3C[C@H]4OC(=O)c3c(-c4c(Cl)cccc4Cl)noc3C3CC3)sc2c1` [Compound I-7, 2-[(1S,4S,5R)-5-[5-cyclopropyl-3-(2,6-dichlorophenyl)-1,2-oxazole-4-carbonyloxy]-2-azabicyclo[2.2.1]heptan-2-yl]-4-(2,2,2-trifluoroethoxy)-1,3-benzothiazole-6-carboxylic acid], in experiment [1], the Emax worked out at 119% and the EC50 is 5.01 nM. Also, in experiment [2], the pEC50 came to 7.4 and the Emax is 162%.
Regarding `O=C(O)c1cc(OC(F)(F)F)c2nc(N3C[C@@H]4C[C@H]3C[C@H]4OC(=O)c3c(-c4ccccc4C(F)(F)F)noc3C3CC3)sc2c1` [Compound I-9, 2-[(1S,4S,5R)-5-{5-cyclopropyl-3-[2-(trifluoromethyl)phenyl]-1,2-oxazole-4-carbonyloxy}-2-azabicyclo[2.2.1]heptan-2-yl]-4-(trifluoromethoxy)-1,3-benzothiazole-6-carboxylic Acid], in experiment [1], the Emax was found to be 107% and the EC50 was 5.01 nM. In experiment [2], the pEC50 was 7.1 and the Emax was found to be 172%.
Turning to `O=C(NS(=O)(=O)C1CCOC1)c1ccc(N2C(=O)[C@@H]3C[C@H]2C[C@H]3OCc2c(-c3c(Cl)cccc3Cl)noc2C2CC2)cc1F` (stereo partly drawn) [Compound I-334, 4-((1S,4R,5R)-5-((5-cyclopropyl-3-(2,6-dichlorophenyl)isoxazol-4-yl)methoxy)-3-oxo-2-azabicyclo[2.2.1]heptan-2-yl)-2-fluoro-N-((tetrahydrofuran-3-yl)sulfonyl)benzamide], in experiment [1], the Emax is 104% and the EC50 is 1 nM. In experiment [2], the pEC50 came out at 9 and the Emax turned out to be 180%.
The like results for `O=C(O)c1cc([C@@H]2CCOC2)c2nc(N3C[C@@H]4C[C@H]3C[C@H]4OCc3c(-c4c(F)cccc4Cl)noc3C3CC3)sc2c1` [Compound I-266, 2-((1S,4S,5R)-5-((3-(2-chloro-6-fluorophenyl)-5-cyclopropylisoxazol-4-yl)methoxy)-2-azabicyclo[2.2.1]heptan-2-yl)-4-((S)-tetrahydrofuran-3-yl)benzo[d]thiazole-6-carboxylic Acid] were, in that order, 105%, 0.251 nM, 8.6 and 139%.
`Cc1cccc(Cl)c1-c1noc(C2CC2)c1CO[C@@H]1C[C@@H]2C[C@H]1CN2c1nc2c(C3CCOCC3)cc(C(=O)O)cc2s1` [Compound I-271, 2-((1S,4S,5R)-5-((3-(2-chloro-6-methylphenyl)-5-cyclopropylisoxazol-4-yl)methoxy)-2-azabicyclo[2.2.1]heptan-2-yl)-4-(tetrahydro-2H-pyran-4-yl)benzo[d]thiazole-6-carboxylic acid]: in experiment [1], the Emax came out at 108% and the EC50 was 0.398 nM. Besides, in experiment [2], the pEC50 is on record as 8.6 and the Emax came to 132%.
Consider `O=C1NCc2cc(N3C[C@@H]4C[C@H]3C[C@H]4OCc3c(-c4c(Cl)cccc4Cl)noc3C3CC3)ccc21` [Compound I-135, 5-[(1S,4S,5R)-5-{[5-cyclopropyl-3-(2,6-dichlorophenyl)-1,2-oxazol-4-yl]methoxy}-2-azabicyclo[2.2.1]heptan-2-yl]-2,3-dihydro-1H-isoindol-1-one], for which, in experiment [1], the Emax was 102% and a half-maximal response (EC50) required 1 nM. For the same compound, in experiment [2], the pEC50 amounted to 9.4 and the Emax stood at 152%.
Take `O=C(CCc1ccc(N2C[C@@H]3C[C@H]2C[C@H]3OCc2c(-c3c(F)cccc3Cl)noc2C2CC2)c(F)c1)NS(=O)(=O)C1CC1` [Compound I-240, 3-(4-((1S,4S,5R)-5-((3-(2-chloro-6-fluorophenyl)-5-cyclopropylisoxazol-4-yl)methoxy)-2-azabicyclo[2.2.1]heptan-2-yl)-3-fluorophenyl)-N-(cyclopropylsulfonyl)propanamide]: in experiment [1], the Emax was found to be 92% and the EC50 was 6.31 nM. For the same compound, in experiment [2], the pEC50 worked out at 8.1 and the Emax turned out to be 162%.
